Data reported in patent publication US11291660B2, “Method of treating heart failure with preserved ejection fraction by administering milrinone” (Baker Heart and Diabetes Institute, priority 2014, dated 2022).

How the values were obtained:
[1] = Saturated solubility of Milrinone in different buffers; format: physicochemical; settings: pH 1.2 to 7.4 buffers
Description: Aim: To perform the saturated solubility of Milrinone in different buffers.
1. pH 1.2—Hydrochloric Acid Buffer
3. pH 6.8—Phosphate Buffer
4. pH 7.4—Phosphate Buffer.
• 1. 2 mL buffer solution is placed into a 8 mL USP Type I clear glass vial (with screw cap and PTFE septa) • 2. 10 mg of Milrinone is added in each vial and the vial is shaken to dissolve the compound. • 3. The addition of Milrinone is continued till the formation of saturated solution. • 4. The pH of the saturated solution is measured after the addition of Milrinone. • 5. If there is any difference in pH more than 0.1 units is observed when compared to the initial pH, the pH was adjusted with acid or base respectively to bring it to the initial pH. • 6. The vials are closed with screw cap and kept for mixing using rotary tube shaker for 24 h. Note: The vials are observed at frequent intervals and if the solution is clear, further amount of Milrinone is added to make a saturated solution.

HFpEF patients [2] = settings: cited from earlier work
HFpEF = settings: in vivo; cited from earlier work
HFpEF patients [3] = settings: cited from earlier work; remark: listed apart in the source
HFpEF patients [4] = settings: cited from earlier work; remark: listed apart in the source

SMILES: Cc1[nH]c(=O)c(C#N)cc1-c1ccncc1 [Milrinone, 1,2-dihydro-3-cyano-6-methyl-5-(4-pyridinyl)-2(1H)-pyridinone]
- Solubility as a function of pH (in words) [1]: highly soluble in acidic pH

SMILES: COc1ccccc1OCC(O)CN1CCN(CC(=O)Nc2c(C)cccc2C)CC1 (stereo not drawn) [Ranolazine]
- Echocardiographic parameters or exercise performance (HFpEF patients [2]): did not result in a change

SMILES: C[C@H]1O[C@@H](O[C@H]2[C@@H](O)C[C@H](O[C@H]3[C@@H](O)C[C@H](O[C@H]4CC[C@@]5(C)[C@H](CC[C@@H]6[C@@H]5C[C@@H](O)[C@]5(C)[C@@H](C7=CC(=O)OC7)CC[C@]65O)C4)O[C@@H]3C)O[C@@H]2C)C[C@H](O)[C@@H]1O [digoxin]
- Benefit as therapy for HFpEF (HFpEF): little or no conclusive benefit

SMILES: CCCc1nn(C)c2c(=O)[nH]c(-c3cc(S(=O)(=O)N4CCN(C)CC4)ccc3OCC)nc12 [sildenafil]
- Exercise capacity or clinical status (HFpEF patients [3]): did not result in improvement

SMILES: CC(=O)S[C@@H]1CC2=CC(=O)CC[C@]2(C)[C@H]2CC[C@@]3(C)[C@@H](CC[C@@]34CCC(=O)O4)[C@H]12 [spironolactone]
- Left ventricular diastolic function (HFpEF patients [4]): improved left ventricular diastolic function
- Maximal exercise capacity, patient symptoms or quality of life (HFpEF patients [4]): did not affect
